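96-well plates; 48 h exposure; 5 concentrations. Endpoints by linear interpolation between flanking doses. Not reached: highest tested concentration assigned. GI50 = concentration required for 50% inhibition of growth.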 The source made the active and inactive calls. Rule as the data show it: active = GI50 up to about 1.1 µM and inactive = higher.
Tests used:
Assay in all cases: inhibition of tumour cell growth, NCI panel, 48 h
M19-MEL = tested on: M19-MEL
SNB-78 = tested on: SNB-78
SK-OV-3 = tested on: SK-OV-3
NCI-H460 = tested on: NCI-H460
CCRF-CEM = tested on: CCRF-CEM
KM12 = tested on: KM12
OVCAR-4 = tested on: OVCAR-4
HCT-116 = tested on: HCT-116
UACC-62 = tested on: UACC-62
SF-268 = tested on: SF-268
COLO 205 = tested on: COLO 205
MOLT-4 = tested on: MOLT-4
HOP-92 = tested on: HOP-92
SR = tested on: SR
NCI-H522 = tested on: NCI-H522
OVCAR-3 = tested on: OVCAR-3
K562 = tested on: K562
A549 = tested on: A549
M14 = tested on: M14
HOP-18 = tested on: HOP-18
HCT-15 = tested on: HCT-15
SN12C = tested on: SN12C
NCI-H226 = tested on: NCI-H226
SW-620 = tested on: SW-620
UACC-257 = tested on: UACC-257
SK-MEL-28 = tested on: SK-MEL-28
HOP-62 = tested on: HOP-62
SNB-75 = tested on: SNB-75
DMS-114 = tested on: DMS-114
DLD-1 = tested on: DLD-1
HCC 2998 = tested on: HCC 2998
SF-295 = tested on: SF-295
OVCAR-8 = tested on: OVCAR-8
OVCAR-5 = tested on: OVCAR-5
KM-20L2 = tested on: KM-20L2
786-0 = tested on: 786-0
EKVX = tested on: EKVX
IGROV-1 = tested on: IGROV-1
ACHN = tested on: ACHN
HT-29 = tested on: HT-29
DMS-273 = tested on: DMS-273
SF-539 = tested on: SF-539
LXFL 529 = tested on: LXFL 529
NCI-H23 = tested on: NCI-H23
UO-31 = tested on: UO-31
U-251 = tested on: U-251
TK-10 = tested on: TK-10
CAKI-1 = tested on: CAKI-1
SNB-19 = tested on: SNB-19
SK-MEL-5 = tested on: SK-MEL-5
HL-60 = tested on: HL-60
RPMI-8226 = tested on: RPMI-8226
Malme-3M = tested on: Malme-3M
LOX IMVI = tested on: LOX IMVI
SK-MEL-2 = tested on: SK-MEL-2
RXF 393 = tested on: RXF 393
A498 = tested on: A498
NCI/ADR-RES = tested on: NCI/ADR-RES
T47D = tested on: T47D
BT-549 = tested on: BT-549
MDA-MB-231 = tested on: MDA-MB-231
Hs-578T = tested on: Hs-578T
DU-145 = tested on: DU-145
MCF7 = tested on: MCF7
PC-3 = tested on: PC-3
MDA-N = tested on: MDA-N
MDA-MB-435 = tested on: MDA-MB-435

SMILES: C=C1CC(c2ccc(O)c(OC)c2)Oc2c(OC)cccc21 (configuration not stated)
- GI50 (M19-MEL): 48 µM (inactive)
- GI50 (SNB-78): 33.2 µM (inactive)
- GI50 (SK-OV-3): > 100 µM (inactive)
- GI50 (NCI-H460): 35.1 µM (inactive)
- GI50 (CCRF-CEM): 23.8 µM (inactive)
- GI50 (KM12): 33.7 µM (inactive)
- GI50 (OVCAR-4): 54 µM (inactive)
- GI50 (HCT-116): 31.2 µM (inactive)
- GI50 (UACC-62): 35.4 µM (inactive)
- GI50 (SF-268): 33 µM (inactive)
- GI50 (COLO 205): > 100 µM (inactive)
- GI50 (MOLT-4): 25.1 µM (inactive)
- GI50 (HOP-92): 14.4 µM (inactive)
- GI50 (SR): 19.7 µM (inactive)
- GI50 (NCI-H522): 10.7 µM (inactive)
- GI50 (OVCAR-3): 33.9 µM (inactive)
- GI50 (K562): 19.7 µM (inactive)
- GI50 (A549): 33.7 µM (inactive)
- GI50 (M14): 34 µM (inactive)
- GI50 (HOP-18): > 100 µM (inactive)
- GI50 (HCT-15): 34 µM
- GI50 (SN12C): 34.4 µM (inactive)
- GI50 (NCI-H226): > 100 µM (inactive)
- GI50 (SW-620): 34 µM (inactive)
- GI50 (UACC-257): 39.3 µM (inactive)
- GI50 (SK-MEL-28): 43.5 µM (inactive)
- GI50 (HOP-62): 85.3 µM (inactive)
- GI50 (SNB-75): 39.2 µM (inactive)
- GI50 (DMS-114): 20.4 µM (inactive)
- GI50 (DLD-1): 37 µM (inactive)
- GI50 (HCC 2998): > 100 µM (inactive)
- GI50 (SF-295): 80.5 µM (inactive)
- GI50 (OVCAR-8): 31.1 µM (inactive)
- GI50 (OVCAR-5): 65.5 µM (inactive)
- GI50 (KM-20L2): > 100 µM (inactive)
- GI50 (786-0): 58.9 µM (inactive)
- GI50 (EKVX): 40.6 µM (inactive)
- GI50 (IGROV-1): 36 µM (inactive)
- GI50 (ACHN): 47.4 µM (inactive)
- GI50 (HT-29): 55 µM (inactive)
- GI50 (DMS-273): 18.3 µM (inactive)
- GI50 (SF-539): 21.3 µM (inactive)
- GI50 (LXFL 529): 26.2 µM (inactive)
- GI50 (NCI-H23): 32.9 µM (inactive)
- GI50 (UO-31): 60.3 µM (inactive)
- GI50 (U-251): 30.7 µM (inactive)
- GI50 (TK-10): 99.3 µM (inactive)
- GI50 (CAKI-1): 34.8 µM (inactive)
- GI50 (SNB-19): 44.9 µM (inactive)
- GI50 (SK-MEL-5): 35.7 µM (inactive)
- GI50 (HL-60): 13 µM (inactive)

SMILES: COc1ccc(C=O)cc1O[Si](C)(C)C(C)(C)C
- GI50 (M19-MEL): > 100 µM (inactive)
- GI50 (SNB-78): > 100 µM (inactive)
- GI50 (SK-OV-3): > 100 µM (inactive)
- GI50 (NCI-H460): > 100 µM (inactive)
- GI50 (CCRF-CEM): > 100 µM (inactive)
- GI50 (RPMI-8226): > 100 µM (inactive)
- GI50 (KM12): > 100 µM (inactive)
- GI50 (OVCAR-4): > 100 µM (inactive)
- GI50 (HCT-116): > 100 µM (inactive)
- GI50 (UACC-62): > 100 µM (inactive)
- GI50 (SF-268): > 100 µM (inactive)
- GI50 (COLO 205): > 100 µM (inactive)
- GI50 (MOLT-4): > 100 µM (inactive)
- GI50 (HOP-92): 25.7 µM (inactive)
- GI50 (Malme-3M): > 100 µM (inactive)
- GI50 (OVCAR-3): > 100 µM (inactive)
- GI50 (K562): > 100 µM (inactive)
- GI50 (A549): > 100 µM (inactive)
- GI50 (LOX IMVI): > 100 µM (inactive)
- GI50 (M14): > 100 µM (inactive)
- GI50 (HOP-18): 33.7 µM (inactive)
- GI50 (HCT-15): > 100 µM
- GI50 (SN12C): > 100 µM (inactive)
- GI50 (SW-620): > 100 µM (inactive)
- GI50 (SK-MEL-2): > 100 µM (inactive)
- GI50 (UACC-257): > 100 µM (inactive)
- GI50 (HOP-62): > 100 µM (inactive)
- GI50 (SNB-75): 61.5 µM (inactive)
- GI50 (DMS-114): > 100 µM (inactive)
- GI50 (DLD-1): > 100 µM (inactive)
- GI50 (HCC 2998): > 100 µM (inactive)
- GI50 (SF-295): > 100 µM (inactive)
- GI50 (OVCAR-8): > 100 µM (inactive)
- GI50 (OVCAR-5): > 100 µM (inactive)
- GI50 (KM-20L2): > 100 µM (inactive)
- GI50 (786-0): > 100 µM (inactive)
- GI50 (RXF 393): > 100 µM (inactive)
- GI50 (EKVX): > 100 µM (inactive)
- GI50 (IGROV-1): > 100 µM (inactive)
- GI50 (ACHN): > 100 µM (inactive)
- GI50 (HT-29): > 100 µM (inactive)
- GI50 (DMS-273): > 100 µM (inactive)
- GI50 (SF-539): > 100 µM (inactive)
- GI50 (LXFL 529): > 100 µM (inactive)
- GI50 (NCI-H23): > 100 µM (inactive)
- GI50 (UO-31): > 100 µM (inactive)
- GI50 (A498): > 100 µM (inactive)
- GI50 (U-251): > 100 µM (inactive)
- GI50 (TK-10): > 100 µM (inactive)
- GI50 (CAKI-1): > 100 µM (inactive)
- GI50 (SNB-19): > 100 µM (inactive)
- GI50 (SK-MEL-5): > 100 µM (inactive)
- GI50 (HL-60): > 100 µM (inactive)

SMILES: COc1cc2c(cc1OC)[C@@H](Nc1ccc(C#N)cc1)C1COC(=O)[C@@H]1C2c1cc(OC)c(O)c(OC)c1 (some centres not stated)
- GI50 (NCI/ADR-RES): 40.2 µM (inactive)
- GI50 (M19-MEL): 2.39 µM (inactive)
- GI50 (SNB-78): 5.79 µM (inactive)
- GI50 (NCI-H460): < 0.00975 µM (active)
- GI50 (KM12): 1.59 µM (inactive)
- GI50 (T47D): 0.167 µM (active)
- GI50 (BT-549): 1.41 µM (inactive)
- GI50 (COLO 205): 2.13 µM (inactive)
- GI50 (MOLT-4): < 0.00975 µM (active)
- GI50 (SR): < 0.00975 µM (active)
- GI50 (MDA-MB-231): 2.36 µM (inactive)
- GI50 (Hs-578T): 1.55 µM (inactive)
- GI50 (DU-145): 0.149 µM (active)
- GI50 (LOX IMVI): 0.214 µM (active)
- GI50 (HOP-18): 0.805 µM (active)
- GI50 (SN12C): 0.192 µM (active)
- GI50 (NCI-H226): 0.01 µM (active)
- GI50 (SW-620): 0.948 µM (active)
- GI50 (UACC-257): 28.3 µM (inactive)
- GI50 (SNB-75): 0.328 µM (active)
- GI50 (MCF7): 0.181 µM (active)
- GI50 (DLD-1): 2.37 µM (inactive)
- GI50 (SF-295): 0.108 µM (active)
- GI50 (PC-3): > 100 µM (inactive)
- GI50 (KM-20L2): 3.12 µM (inactive)
- GI50 (786-0): 0.196 µM (active)
- GI50 (RXF 393): 2.09 µM (inactive)
- GI50 (ACHN): 0.0279 µM (active)
- GI50 (HT-29): 1.87 µM (inactive)
- GI50 (MDA-N): 3.18 µM (inactive)
- GI50 (DMS-273): 0.0403 µM (active)
- GI50 (SF-539): 0.158 µM (active)
- GI50 (LXFL 529): 22.4 µM (inactive)
- GI50 (UO-31): 1.75 µM (inactive)
- GI50 (A498): 0.042 µM (active)
- GI50 (MDA-MB-435): 6.73 µM (inactive)
- GI50 (SNB-19): 0.344 µM (active)
- GI50 (HL-60): < 0.00975 µM (active)

— ChEMBL document CHEMBL1201862, “PubChem BioAssay data set” (2004)
